The text below walks through data of ChEMBL document CHEMBL6109105, “Design, synthesis and antibacterial evaluation of oxazolidinone derivatives containing N-methylglycyl or quaternary ammonium salts” (Bioorg Med Chem, 2025).

≈ marks a conversion by molar mass, not a printed value. Calls of active or inactive are those of the source. The rule behind the calls is not given here.

Data set [1] deals with Escherichia coli. Nature of the data set: Antibacterial activity against Escherichia coli ATCC 25922 assessed as inhibition of bacterial growth incubated for 16 to 18 hrs by microbroth dilution method. Type of data set: functional. The conditions noted are these: time 16-18 hrs, read-out: MIC100. Background: In broth dilution the organism is exposed to a series of concentrations in liquid medium.

For data set [2], the system named is Enterococcus faecalis. The data set can be described thus: Disruption of preformed biofilm in Enterococcus faecalis assessed as bacterial survival rate at 16 times of MIC measured after 24 hrs relative to control. It counts as functional.
Data set [3] is described as follows: Hemolytic activity in sheep RBC assessed as hemolysis incubated for 1 hrs by microplate reader analysis. The conditions noted are these: sheep red blood cells. Type of data set: toxicity, cell-based, Ovis aries, Erythrocyte.
In data set [4] the test system is Enterococcus faecalis. The data set can be described thus: Antipersister-activity against in Enterococcus faecalis assessed as log reduction in persistent cells at 32 times of MIC preincubated with 100 times of MIC of rifampicin for 24 hrs followed by compound addition and measured after 8 hrs by drop plate counting method. Type of data set: functional.
Data set [5] relates to Enterococcus faecalis. Nature of the data set: Antibacterial activity against Enterococcus faecalis assessed as inhibition of bacterial growth incubated for 3 hrs in presence of 50% plasma by dilution method. Type of data set: functional.
Data set [6] is described as follows: Cytotoxicity against human HeLa cells assessed as cell viability at 64 microg/ml incubated for 24 hrs by CCK8 assay relative to control. It counts as toxicity, cell-based. The conditions noted are these: at 64 µg/mL, read-out: Activity. (In general: Tetrazolium dyes change colour on reduction, which living cells bring about.)
Data set [7] has as its system Cell membrane. The data set can be described thus: Induction of cytoplasmic membrane permeability in Enterococcus faecalis assessed as increase in fluorescence intensity at 8 times of MIC by PI staining based analysis.
Data set [8] has as its system Staphylococcus aureus. Nature of the data set: Antibacterial activity against Staphylococcus aureus ATCC 29213 assessed as inhibition of bacterial growth incubated for 16 to 18 hrs by microbroth dilution method. It counts as functional. The following applies: time 16-18 hrs, read-out: MIC100.
Data set [9] relates to Enterococcus faecalis. Nature of the data set: Disruption of preformed biofilm in Enterococcus faecalis assessed as bacterial survival rate at 32 times of MIC measured after 24 hrs relative to control. Type of data set: functional.
In data set [10] the test system is Stenotrophomonas maltophilia. Nature of the data set: Antibacterial activity against Stenotrophomonas maltophilia ATCC 17808 assessed as inhibition of bacterial growth incubated for 16 to 18 hrs by microbroth dilution method. The conditions noted are these: time 16-18 hrs, read-out: MIC100. Type of data set: functional.
The test system of data set [11] is Enterococcus faecalis. The data set can be described thus: Induction of ROS-dependent oxidative stress in Enterococcus faecalis assessed as decrease in GSH activity at 8 times of MIC (reference value: 1.34 %). Type of data set: functional. Also noted: scale not given: the % may be the effect or the level left.
The test system of data set [12] is Cell membrane. Nature of the data set: Induction of cytoplasmic membrane depolarization in Enterococcus faecalis assessed as increase in fluorescence intensity by DiSC35 dye based microplate reader analysis.
The subject of data set [13] is Cell membrane. Nature of the data set: Induction of cell membrane damage in Enterococcus faecalis assessed as nucleic acid leakage at 32 times of MIC incubated for 2 hrs by fluorescence spectrophotometric analysis. Type of data set: subcellular.
Data set [14] has as its system Enterococcus faecalis. Nature of the data set: Post-antibiotic affect in Enterococcus faecalis assessed as reduction in growth rate at 16 times of MIC measured after 1 hrs. It counts as functional, organism-based.
Data set [15] deals with Enterococcus faecalis. Nature of the data set: Induction of ROS accumulation in Enterococcus faecalis assessed as fluorescence intensity at 8 times of MIC incubated for 30 mins by DCFH-DA staining based microplate reader analysis. It counts as functional. The conditions noted are these: 0.5 h.
For data set [16], the system named is Enterococcus faecalis. The data set can be described thus: Antibacterial activity against Enterococcus faecalis assessed as inhibition of bacterial growth incubated for 3 hrs in presence of 50% MHB by dilution method. Type of data set: functional, organism-based.
Data set [17] has as its system Enterococcus faecalis. Nature of the data set: Antibacterial activity against Enterococcus faecalis assessed as post-antibiotic effect at 8 times of MIC measured up to 8 hrs. It counts as functional.
Data set [18] has as its system Enterococcus faecalis. The data set can be described thus: Post-antibiotic affect in Enterococcus faecalis assessed as reduction in growth rate at 8 times of MIC measured after 1 hrs. It counts as functional, organism-based.
In data set [19] the test system is Cell membrane. The data set can be described thus: Induction of cell membrane damage in Enterococcus faecalis assessed as nucleic acid leakage at 8 times of MIC incubated for 2 hrs by fluorescence spectrophotometric analysis. Type of data set: subcellular.
The subject of data set [20] is Cell membrane. The data set can be described thus: Induction of cell membrane damage in Enterococcus faecalis assessed as nucleic acid leakage at 16 times of MIC incubated for 2 hrs by fluorescence spectrophotometric analysis. Type of data set: subcellular.
Data set [21] has as its system Enterococcus faecalis. The data set can be described thus: Disruption of preformed biofilm in Enterococcus faecalis assessed as reduction in bacterial density at 32 times of MIC measured after 24 hrs by SYTO 9 staining based confocal laser scanning microscopic analysis. It counts as functional, organism-based.
The subject of data set [22] is Enterococcus faecalis. The data set can be described thus: Drug resistance, ratio of MIC for Enterococcus faecalis measured after 5 days to MIC for Enterococcus faecalis measured after 16 to 18 hrs. Type of data set: functional.
The test system of data set [23] is Enterococcus faecalis. Nature of the data set: Bactericidal activity against Enterococcus faecalis assessed as reduction in bacterial count at 4 times of MIC measured within 10 hrs by time-kill kinetics analysis. Type of data set: functional.
Data set [24] concerns Enterococcus faecalis. Nature of the data set: Antibacterial activity against Enterococcus faecalis assessed as post-antibiotic effect at 16 times of MIC measured up to 8 hrs. Type of data set: functional.
Data set [25] concerns HeLa. The data set can be described thus: Cytotoxicity against human HeLa cells assessed as increase in red fluorescence at 32 microg/ml incubated for 24 hrs by calcein-AM/PI staining based fluorescence microscopic analysis. Type of data set: toxicity, cell-based. The conditions noted are these: dose 32 µg/ml.
Data set [26] relates to HeLa. The data set can be described thus: Cytotoxicity against human HeLa cells assessed as increase in fluorescence intensity at 1 to 16 microg/ml by vesicle leakage assay. Type of data set: toxicity, cell-based. The conditions noted are these: dose 1-16 µg/ml.
Data set [27] relates to Enterococcus faecalis. The data set can be described thus: Induction of ROS-dependent oxidative stress in Enterococcus faecalis assessed as decrease in GSH activity at 32 microg/ml (reference value: 1.34 %). The following applies: dose 32 µg/ml. On the set-up: scale not given: the % may be the effect or the level left. Type of data set: functional.
In data set [28] the test system is Enterococcus faecalis. Nature of the data set: Antibacterial activity against Enterococcus faecalis assessed as inhibition of bacterial growth incubated for 16 to 18 hrs in presence of 50% plasma by dilution method. It counts as functional. The following applies: time 16-18 hrs.
Data set [29] concerns Enterococcus faecalis. Nature of the data set: Antibacterial activity against Enterococcus faecalis assessed as inhibition of bacterial growth incubated for 16 to 18 hrs in presence of 50% MHB by dilution method. Type of data set: functional. The following applies: time 16-18 hrs.
In data set [30] the test system is Enterococcus faecalis. The data set can be described thus: Antibacterial activity against Enterococcus faecalis assessed as inhibition of bacterial growth incubated for 16 to 18 hrs in presence of 50% serum by dilution method. Type of data set: functional. The following applies: time 16-18 hrs.
Data set [31] can be described thus: Selectivity ratio of MIC for antibacterial activity against Enterococcus faecalis assessed as inhibition of bacterial growth measured after 3 hrs in presence of 50% plasma to MIC for antibacterial activity against Enterococcus faecalis assessed as inhibition of bacterial growth assessed as inhibition of bacterial growth measured after 16 to 18 hrs. Type of data set: functional.

Data set [32] deals with Enterococcus faecalis. Nature of the data set: Antibacterial activity against Enterococcus faecalis assessed as inhibition of bacterial growth at 0.5 times of MIC incubated for 15 days by bacterial resistance development assay. It counts as functional, organism-based. The following applies: time 15.0 day.
Data set [33] deals with Enterococcus faecalis. Nature of the data set: Antibacterial activity against Enterococcus faecalis ATCC 29212 assessed as inhibition of bacterial growth incubated for 16 to 18 hrs by microbroth dilution method. It counts as functional. The conditions noted are these: time 16-18 hrs, read-out: MIC100.
The nature of data set [34]: Hemolytic activity in sheep RBC assessed as hemolysis at 1280 microg/ml incubated for 1 hrs by microplate reader analysis relative to control. It counts as toxicity, cell-based, Ovis aries, Erythrocyte. The conditions noted are these: sheep red blood cells, dose 1280 µg/ml, read-out: Activity.
Data set [35] concerns Enterococcus faecalis. The data set can be described thus: Induction of ROS accumulation in Enterococcus faecalis assessed as increase in fluorescence intensity at 8 times of MIC incubated for 30 mins in presence of NAC by DCFH-DA staining based microplate reader analysis. Type of data set: functional, organism-based.
Data set [36] has as its system Enterococcus faecalis. Nature of the data set: Drug resistance, ratio of MIC for Enterococcus faecalis measured after 15 days to MIC for Enterococcus faecalis measured after 16 to 18 hrs. Type of data set: functional.

Take `CC(=O)NC[C@H]1CN(c2ccc(N3CCOCC3)c(F)c2)C(=O)O1` [LINEZOLID]: the MIC is above 128 µg/mL in [1], 1 µg/mL (≈ 2.96 µM) in data set [8] and above 128 µg/mL in data set [10]. Further, the Activity in data set [2] came to 1.36%; in [4], 3.24 log10CFU/ml; in data set [9] it was 0.49%; in data set [11], 13.01%. Besides, the concentration for 50% haemolysis (HC50) (in general, the concentration that lyses half of the red blood cells) at 1 h in data set [3] was above 1280 µg/mL. The result in data set [5], in [13], in data set [14], in [16], in data set [18] and in data set [19] was Active. For the same compound, the outcome in data set [20] was Active. For the same compound, the viability at 24 h, 64 microg/ml in [6] was determined as 56.5%. Further, the result in [7] and in data set [12] was inactive. In addition, the Flu intensity in data set [15] came out at 377 a.u. Further, the PAE in data set [17] was 0.67 h.
`CC(=O)NC[C@H]1CN(c2ccc(N3CCN(C(=O)CN(C)Cc4ccc([N+](=O)[O-])cc4)CC3)c(F)c2)C(=O)O1`: the result in data set [21], in [32], in data set [14], in data set [16] and in data set [18] was Active. The MIC in data set [1] is above 128 µg/mL; in data set [5], 8 µg/mL; in data set [28], 2 µg/mL; in data set [8], 8 µg/mL (≈ 14.7 µM); in data set [29], 2 µg/mL; in [30], 4 µg/mL. Further, the MIC in data set [10] was above 128 µg/mL; in [33], 2 µg/mL (≈ 3.69 µM). Further, in data set [22], the Ratio was found to be 2. The Activity in [2] is on record as 0.3%; in data set [23] it was ~1 10^4CFU/ml; in data set [4], 3.71 log10CFU/ml; in data set [25] it was “Non-toxic”; in [26], “Non-toxic”; in data set [27], 45.89%. Besides, the Activity in data set [9] was 0.04%; in [13], “Active; Small Amount Of Leakage Observed”; in [19], “Active; Small Amount Of Leakage Observed”; in [20], “Active; Small Amount Of Leakage Observed”. Moreover, in data set [3], the HC50 at 1 h is above 1280 µg/mL. In addition, the values for the PAE in [24] and in [17] were 5.13 h and 0.44 h, respectively. For the same compound, the viability at 24 h, 64 microg/ml in data set [6] is 59.8%. Moreover, the result in data set [7], in data set [12] and in data set [35] was inactive. For the same compound, the Selectivity ratio in [31] turned out to be 4. Also, the hemolysis at 1 h, 1280 microg/ml in data set [34] is 3.19%. Besides, the Flu intensity in data set [15] is given as 280 a.u.
In the case of `CCn1cc(C(=O)O)c(=O)c2cc(F)c(N3CCNCC3)cc21` [NORFLOXACIN], the Ratio in data set [36] was 4.
